{
  "source": "patent US9261498B2",
  "about": "“Biomarker for sensitivity to mTOR inhibitor therapy in kidney cancer” (The Regents of the University of California, priority 2005, dated 2016)",
  "key": {"GLUT-1, CA-IX and VEGF": {"tested_on": "GLUT-1, CA-IX and VEGF", "test": "Expression of HIF target genes GLUT-1, CA-IX and VEGF in VHL knockdown cells", "type": "cell-based, human", "conditions": "1 and 10 nM CCI-779", "procedure": "(a) SN12C-CSCG and SN12C-VHLshRNA cell were treated with vehicle, 1 nM or 10 nM of CCI-779 and lysed 24 hours later. Lysates were subjected to immunoblotting for HIF-1α, HIF-2α, GLUT-1, CA-IX, p-eIF4G, p-S6 Ribosomal protein. Equal protein loading was verified using anti-β-actin antibody. (b) HIF-1α expression was probed by immunoblotting in SN12C-MSCV-5′TOP-HIF-1α cDNA (left panel) and SN12C-MSCV-HIF-1α cDNA (tight panel) post 24 hours of vehicle, 1 nM or 10 nM of CCI-779.\n(§1) Cells and xenograft tumors were lysed in ECB lysis buffer (see, e.g. Kondo et al., Cancer Cell 1, 237-46 (2002)) or high-detergent buffer (2% SDS), (see, e.g. Chen et al., Nat Med 10, 33-9 (2004)), respectively, supplemented with complete protease and phosphatase inhibitor cocktails (Calbiochem). […] Bound antibody was detected using enhanced chemiluminescence (ECL, Amersham). For VEGF ELISA quantification, cells were plated in 6 well plates (1×10^5 per well). […] Thirty-six hours later, VEGF ELISA (R&D Systems) was performed according to the manufacturer's instructions, using a Fisher Plate reader. […]\nCells and xenograft tumors were lysed in ECB lysis buffer or high-detergent buffer (2% SDS), respectively, supplemented with complete protease and phosphatase inhibitor cocktails (Calbiochem). […] Bound antibody was detected using enhanced chemiluminescence (ECL, Amersham). […]"}, "mTOR": {"tested_on": "mTOR", "test": "Immunoblot of S6 phosphorylation in xenograft tumors", "type": "in vivo, SCID mice", "conditions": "parental and knockdown xenografts, 0.1 mg/kg, day 5 of treatment", "procedure": "FIGS. 1A-1E. Effects of VHL knockdown on sensitivity to CCI-779. (a) Immunoblotting of lysates derived from shRNA and control (empty vector, V) in SN12C, using antibodies against VHL (both isoforms detected), HIF-1α, HIF-2α, GLUT-1, CA-IX and β-Actin (as a loading control). (b) SN12C-CSCG and SN12C-VHLshRNA cells (1×10^5) were cultured in 10% serum rich media, in the presence of vehicle, 1 or 10 nM of CCI-779 for 5 days. Cell growth was measured by cell counts (n=3). […] (c) SN12C-CSCG (C1) and SN12C-CSCG shVHL RNA (C2) cells were injected into SCID mice at a dose of 1×10^6 cells per mouse (n=30). […] Phosphorylated-S6 protein in SN12C-CSCG and SN12C-VHL shRNA xenograft tumors treated with vehicle or 0.1 mg/kg of CCI-779 was measured by immunoblot C3 and C4). […]\nas §1"}},
  "note": "Entries after “also recorded” stand apart in the source; their conditions may differ.",
  "data": [
    {"smiles": "CO[C@H]1C[C@@H]2CC[C@@H](C)[C@@](O)(O2)C(=O)C(=O)N2CCCC[C@H]2C(=O)O[C@H]([C@H](C)C[C@@H]2CC[C@@H](OC(=O)C(C)(CO)CO)[C@H](OC)C2)CC(=O)[C@H](C)/C=C(\\C)[C@@H](O)[C@@H](OC)C(=O)[C@H](C)C[C@H](C)/C=C/C=C/C=C/1C", "note": "[CCI-779]", "values": [
      {"measurement": "expression of GLUT-1, CA-IX and VEGF", "setting": "GLUT-1, CA-IX and VEGF", "value": "similarly reduced; also recorded: decrease in the expression"},
      {"measurement": "S6 phosphorylation in xenograft tumors", "setting": "mTOR", "value": "decrease in S6 phosphorylation"}
    ]}
  ]
}
